Where two headings read alike, the source gives them in different places.
Legend:
[1] = phase I two-part drug-drug interaction study, plasma pharmacokinetics (Example 1); assay type: in vivo, human; settings: male, human, plasma, oral
Description: The secondary objective was to provide additional information on the safety and tolerability of this dose regimen in healthy males.
This was a single center, non-randomized, DDI study in 35 (Part 1) and 38 (Part 2) healthy males. The key inclusion criterion was males aged 18 to 55 years (inclusive). […] In Part 2, co-administration with omeprazole was studied. The study design is illustrated in FIG. 1.
At least a 2-to 8-day washout occurred between each period to account for a minimum of 5 half-lives of the active moieties dosed in the preceding period.
Blood samples were collected into 6 mL K,EDTA tubes and were processed within 30 minutes of collection. The resultant plasma was then frozen within 90 minutes of collection and stored at […] until shipment to the bioanalytical laboratory.
For each comparison, PK parameters were natural log transformed and analyzed using mixed effect modeling with treatment included as a fixed effect and subject as a random effect. Adjusted geometric mean ratios (GMRs) and corresponding 90% CIs were calculated.

[2] = tested on: bacterial mutagenicity (Ames); experiment: in vitro bacterial mutagenicity (Ames) assay; assay type: cell-based

## CC(C)NC(=O)COc1cccc(-c2nc(Nc3ccc4[nH]ncc4c3)c3ccccc3n2)c1 [Belumosudil, 2-{3-[4-(1H-indazol-5-ylamino)-2-quinazolinyl]phenoxy}-N-(propan-2-yl) acetamide]
[1]; 200 mg belumosudil single dose + rabeprazole, read-out: AUC0-24, geometric mean (geometric CV %)
  AUC from 0 to 24 h: 1510 ng·h/mL
[1]; 200 mg belumosudil single dose + rabeprazole, read-out: AUCinf, arithmetic mean (SD)
  AUC(0-inf): 1940 ng·h/mL
[1]; 200 mg belumosudil single dose + rabeprazole, read-out: AUCinf, geometric mean (geometric CV %)
  AUC(0-inf): 1680 ng·h/mL
[1]; 200 mg belumosudil single dose + rabeprazole, read-out: AUClast, arithmetic mean (SD)
  AUC(0-t): 1850 ng·h/mL
[1]; 200 mg belumosudil single dose + rabeprazole, read-out: AUClast, geometric mean (geometric CV %)
  AUC(0-t): 1580 ng·h/mL
[1]; 200 mg belumosudil single dose + rabeprazole, read-out: Cmax, arithmetic mean (SD)
  Cmax: 262 ng/mL
[1]; 200 mg belumosudil single dose + rabeprazole, read-out: Cmax, geometric mean (geometric CV %)
  Cmax: 227 ng/mL
[1]; 200 mg belumosudil single dose + rabeprazole, read-out: Tmax, median (range)
  Tmax: 5 h
[1]; 200 mg belumosudil single dose + rabeprazole, read-out: t1/2, arithmetic mean (SD) (converted)
  half-life: 10.4 h
[1]; 200 mg belumosudil single dose + rabeprazole, read-out: t1/2, geometric mean (geometric CV %) (converted)
  half-life: 7.8 h
[1]; 200 mg belumosudil single dose + rifampicin, read-out: AUC0-24, arithmetic mean (SD)
  AUC from 0 to 24 h: 2630 ng·h/mL
[1]; 200 mg belumosudil single dose + rifampicin, read-out: AUC0-24, geometric mean (geometric CV %)
  AUC from 0 to 24 h: 2490 ng·h/mL
[1]; 200 mg belumosudil single dose + rifampicin, read-out: AUCinf, arithmetic mean (SD)
  AUC(0-inf): 2640 ng·h/mL
[1]; 200 mg belumosudil single dose + rifampicin, read-out: AUCinf, geometric mean (geometric CV %)
  AUC(0-inf): 2500 ng·h/mL
[1]; 200 mg belumosudil single dose + rifampicin, read-out: AUClast, arithmetic mean (SD)
  AUC(0-t): 2580 ng·h/mL
[1]; 200 mg belumosudil single dose + rifampicin, read-out: AUClast, geometric mean (geometric CV %)
  AUC(0-t): 2440 ng·h/mL
[1]; 200 mg belumosudil single dose + rifampicin, read-out: Cmax, arithmetic mean (SD)
  Cmax: 753 ng/mL
[1]; 200 mg belumosudil single dose + rifampicin, read-out: Cmax, geometric mean (geometric CV %)
  Cmax: 712 ng/mL
[1]; 200 mg belumosudil single dose + rifampicin, read-out: Tmax, median (range)
  Tmax: 3 h
[1]; 200 mg belumosudil single dose + rifampicin, read-out: t1/2, arithmetic mean (SD) (converted)
  half-life: 2.36 h
[1]; 200 mg belumosudil single dose + rifampicin, read-out: t1/2, geometric mean (geometric CV %) (converted)
  half-life: 2.17 h
[1]; 200 mg, 200 mg belumosudil BID alone, first dose, read-out: Cmax, arithmetic mean (SD)
  Cmax: 1880 ng/mL
[1]; 200 mg, 200 mg belumosudil BID alone, first dose, read-out: Cmax, geometric mean (geometric CV %)
  Cmax: 1790 ng/mL
[1]; 200 mg, 200 mg belumosudil BID alone, first dose, read-out: Tmax, median (range)
  Tmax: 3 h
[1]; 200 mg, 200 mg belumosudil BID alone, second dose, read-out: Cmax, arithmetic mean (SD)
  Cmax: 1870 ng/mL
[1]; 200 mg, 200 mg belumosudil BID alone, second dose, read-out: Cmax, geometric mean (geometric CV %)
  Cmax: 1760 ng/mL
[1]; 200 mg, 200 mg belumosudil BID alone, second dose, read-out: Tmax, median (range)
  Tmax: 15 h
[1]; 200 mg, 200 mg belumosudil BID alone, read-out: AUC0-24, arithmetic mean (SD)
  AUC from 0 to 24 h: 17900 ng·h/mL
[1]; 200 mg, 200 mg belumosudil BID alone, read-out: AUC0-24, geometric mean (geometric CV %)
  AUC from 0 to 24 h: 16800 ng·h/mL
[1]; 200 mg, 200 mg belumosudil BID alone, read-out: AUCinf, arithmetic mean (SD)
  AUC(0-inf): 20100 ng·h/mL
[1]; 200 mg, 200 mg belumosudil BID alone, read-out: AUCinf, geometric mean (geometric CV %)
  AUC(0-inf): 18800 ng·h/mL
[1]; 200 mg, 200 mg belumosudil BID alone, read-out: AUClast, arithmetic mean (SD)
  AUC(0-t): 20300 ng·h/mL
[1]; 200 mg, 200 mg belumosudil BID alone, read-out: AUClast, geometric mean (geometric CV %)
  AUC(0-t): 18900 ng·h/mL
[1]; 200 mg, 200 mg belumosudil BID alone, read-out: t1/2, arithmetic mean (SD) (converted)
  half-life: 7.15 h
[1]; 200 mg, 200 mg belumosudil BID alone, read-out: t1/2, geometric mean (geometric CV %) (converted)
  half-life: 6.86 h
[1]; 200 mg, 200 mg belumosudil single dose alone, read-out: AUC0-24, arithmetic mean (SD)
  AUC from 0 to 24 h: 8830 ng·h/mL
[1]; 200 mg, 200 mg belumosudil single dose alone, read-out: AUC0-24, geometric mean (geometric CV %)
  AUC from 0 to 24 h: 8430 ng·h/mL
[1]; 200 mg, 200 mg belumosudil single dose alone, read-out: AUCinf, arithmetic mean (SD)
  AUC(0-inf): 9580 ng·h/mL
[1]; 200 mg, 200 mg belumosudil single dose alone, read-out: AUCinf, geometric mean (geometric CV %)
  AUC(0-inf): 9080 ng·h/mL
[1]; 200 mg, 200 mg belumosudil single dose alone, read-out: AUClast, arithmetic mean (SD)
  AUC(0-t): 9220 ng·h/mL
[1]; 200 mg, 200 mg belumosudil single dose alone, read-out: AUClast, geometric mean (geometric CV %)
  AUC(0-t): 8750 ng·h/mL
[1]; 200 mg, 200 mg belumosudil single dose alone, read-out: Cmax, arithmetic mean (SD)
  Cmax: 1850 ng/mL
[1]; 200 mg, 200 mg belumosudil single dose alone, read-out: Cmax, geometric mean (geometric CV %)
  Cmax: 1770 ng/mL
[1]; 200 mg, 200 mg belumosudil single dose alone, read-out: Tmax, median (range)
  Tmax: 3 h
[1]; 200 mg, 200 mg belumosudil single dose alone, read-out: t1/2, arithmetic mean (SD) (converted)
  half-life: 9.28 h
[1]; 200 mg, 200 mg belumosudil single dose alone, read-out: t1/2, geometric mean (geometric CV %) (converted)
  half-life: 7.89 h
[1]; coadministration of rabeprazole, read-out: delay of median Tmax
  Tmax: 2 h
[2]
  genotoxicity: not genotoxic

From US20240350493A1 (Kadmon Corporation, LLC, priority 2022, published 2024)
